Assay results taken from patent EP4813991A1 (iLeadBMS Co., Ltd., priority 2023, dated 2025).
Read-outs that look alike come from different tables or passages of the source.

What was measured:
CDK12 [1] = target: T1, CDK12 (Homo sapiens, UniProt Q9NYV4); assay: CDK12 kinase inhibitory activity assay (33P-ATP filter binding); format: biochemical
Method in brief: (§1)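 Compound in 9 concentrations pre-incubated 20 min with kinase and substrate, then ^33P-γ-ATP added and reacted 120 min at room temperature. Phosphorylated substrate captured on filter, washed with 0.75 % phosphoric acid and counted; activity as % of DMSO control, IC50 fitted.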

CDK13 = CDK13 (Homo sapiens, UniProt Q14004); assay: CDK13 kinase inhibitory activity assay (33P-ATP filter binding); format: biochemical
Method in brief: as §1

[2] = test system: MDA-MB-231 breast cancer cells; assay: Proliferation inhibitory activity assay against MDA-MB-231 breast cancer cells; format: cell-based; conditions: Homo sapiens, 72 hours, CellTiter Glo, relative IC50
Method in brief: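 Cells grown in L-15 with 10% FBS at 37 °C, 0% CO2, then exposed next day to compounds at 9 concentrations (DMSO vehicle) for 72 h. Viability read by CellTiter Glo luminescence; relative IC50 from dose-response curve fit.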

CDK1 = CDK1 (Homo sapiens, UniProt P06493); assay: CDK1 kinase inhibitory activity assay and selectivity over CDK12; format: biochemical; conditions: for IC50: kinase reaction 120 minutes, 33P-gamma-ATP; for CDK1/CDK12: ratio of CDK1 IC50 to CDK12 IC50
Procedure: (§2) Before initiating the CDK1 and CDK2 kinase reactions, each Example compound was dissolved and diluted in DMSO as a solvent across 9 concentration ranges at room temperature. The diluted solutions were then incubated with a mixture of kinase and substrate (and cofactors, if required) for 20 minutes. Next, radioisotope-labeled ATP (^33P-gamma-ATP) was added to proceed with the kinase reaction at room temperature for 120 minutes. After the reaction was completed, the reaction mixture was transferred to a filter paper that binds the radioisotope-labeled catalytic product (^33P-substrate). Unreacted ^33P-ATP was removed by washing with 0.75 % phosphoric acid, and then the radioactive phosphorylated substrate remaining on the filter paper was measured. Kinase activity data were expressed as a percentage of the kinase activity remaining in the test sample compared to a DMSO control group. The half-maximal inhibitory concentration (IC50) for each kinase was calculated using Prism software.
(§3) The CDK1 and CDK2 kinase inhibitory activities of the Example compounds measured by the above method were evaluated according to the following criteria, and the results are presented in Table 14.

CDK2 = CDK2 (Homo sapiens, UniProt P24941); assay: CDK2 kinase inhibitory activity assay and selectivity over CDK12; format: biochemical; conditions: for IC50: kinase reaction 120 minutes, 33P-gamma-ATP; for CDK2/CDK12: ratio of CDK2 IC50 to CDK12 IC50
Procedure: as §2, §3

CDK12 [3] = target: T1, CDK12; assay: Cellular CDK12 inhibitory activity assay (Ser2 phosphorylation of RNA polymerase II subunit B1 CTD in MDA-MB-231 cells); format: cell-based; parameters: using MDA-MB-231 breast cancer cells; endogenous in cells; host or cells: MDA-MB-231; conditions: MDA-MB-231 cells, 6 hours treatment; read-out: pRpbl CTD S2 IC50
Method in brief: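 MDA-MB-231 cells in L-15 with 10 % FBS were treated with compound at 9 concentrations for 6 h at 37 °C, 0 % CO2. In-Cell Western read phospho-Ser2 and total RNA polymerase II CTD on a Li-COR Odyssey; IC50 from 4-parameter dose-response fit.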

[4] = kinase reaction 120 minutes, 33P-gamma-ATP, read-out: CDK12 IC50
[5] = kinase reaction 120 minutes, 33P-gamma-ATP, read-out: CDK13 IC50

CDK13, sequence (Q14004 whole entry, species assumed): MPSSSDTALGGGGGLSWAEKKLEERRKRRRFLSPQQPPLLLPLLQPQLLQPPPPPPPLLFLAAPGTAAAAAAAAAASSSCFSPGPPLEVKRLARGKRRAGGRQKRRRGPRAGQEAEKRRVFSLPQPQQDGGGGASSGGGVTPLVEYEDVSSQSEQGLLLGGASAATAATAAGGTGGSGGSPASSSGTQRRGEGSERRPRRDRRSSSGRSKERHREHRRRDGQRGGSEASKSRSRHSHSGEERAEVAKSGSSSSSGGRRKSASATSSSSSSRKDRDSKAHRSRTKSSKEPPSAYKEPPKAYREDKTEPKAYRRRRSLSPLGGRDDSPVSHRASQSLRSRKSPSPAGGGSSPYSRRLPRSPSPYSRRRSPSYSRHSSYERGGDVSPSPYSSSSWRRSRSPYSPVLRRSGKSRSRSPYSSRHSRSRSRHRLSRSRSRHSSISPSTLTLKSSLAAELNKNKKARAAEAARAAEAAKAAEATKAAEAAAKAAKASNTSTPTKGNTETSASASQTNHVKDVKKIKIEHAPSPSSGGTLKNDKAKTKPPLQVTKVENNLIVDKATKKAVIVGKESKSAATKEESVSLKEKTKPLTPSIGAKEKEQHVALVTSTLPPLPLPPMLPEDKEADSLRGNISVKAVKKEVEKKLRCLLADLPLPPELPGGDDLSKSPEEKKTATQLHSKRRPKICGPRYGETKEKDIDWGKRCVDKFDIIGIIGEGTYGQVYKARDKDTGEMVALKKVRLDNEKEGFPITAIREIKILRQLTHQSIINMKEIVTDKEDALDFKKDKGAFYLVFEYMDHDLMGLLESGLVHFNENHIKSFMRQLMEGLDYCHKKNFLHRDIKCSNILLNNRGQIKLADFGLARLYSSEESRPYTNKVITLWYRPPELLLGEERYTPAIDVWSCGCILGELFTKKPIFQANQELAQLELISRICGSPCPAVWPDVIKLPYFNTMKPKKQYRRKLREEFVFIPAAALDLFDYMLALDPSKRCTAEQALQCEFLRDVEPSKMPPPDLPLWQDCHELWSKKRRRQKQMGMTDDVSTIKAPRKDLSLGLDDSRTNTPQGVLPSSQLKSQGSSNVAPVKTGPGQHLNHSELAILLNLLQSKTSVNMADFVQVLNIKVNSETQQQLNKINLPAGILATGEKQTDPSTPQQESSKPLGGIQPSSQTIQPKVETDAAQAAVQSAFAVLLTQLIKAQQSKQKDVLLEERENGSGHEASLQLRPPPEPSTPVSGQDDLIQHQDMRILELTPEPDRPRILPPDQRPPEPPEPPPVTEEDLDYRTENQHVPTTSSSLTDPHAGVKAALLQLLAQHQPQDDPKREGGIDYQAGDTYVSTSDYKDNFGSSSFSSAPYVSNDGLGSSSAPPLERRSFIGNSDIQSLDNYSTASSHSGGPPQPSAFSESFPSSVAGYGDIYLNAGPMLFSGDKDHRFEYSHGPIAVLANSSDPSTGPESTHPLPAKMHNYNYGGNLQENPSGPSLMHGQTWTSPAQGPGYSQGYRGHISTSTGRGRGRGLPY
CDK13, sequence (O75909 whole entry partner, species assumed): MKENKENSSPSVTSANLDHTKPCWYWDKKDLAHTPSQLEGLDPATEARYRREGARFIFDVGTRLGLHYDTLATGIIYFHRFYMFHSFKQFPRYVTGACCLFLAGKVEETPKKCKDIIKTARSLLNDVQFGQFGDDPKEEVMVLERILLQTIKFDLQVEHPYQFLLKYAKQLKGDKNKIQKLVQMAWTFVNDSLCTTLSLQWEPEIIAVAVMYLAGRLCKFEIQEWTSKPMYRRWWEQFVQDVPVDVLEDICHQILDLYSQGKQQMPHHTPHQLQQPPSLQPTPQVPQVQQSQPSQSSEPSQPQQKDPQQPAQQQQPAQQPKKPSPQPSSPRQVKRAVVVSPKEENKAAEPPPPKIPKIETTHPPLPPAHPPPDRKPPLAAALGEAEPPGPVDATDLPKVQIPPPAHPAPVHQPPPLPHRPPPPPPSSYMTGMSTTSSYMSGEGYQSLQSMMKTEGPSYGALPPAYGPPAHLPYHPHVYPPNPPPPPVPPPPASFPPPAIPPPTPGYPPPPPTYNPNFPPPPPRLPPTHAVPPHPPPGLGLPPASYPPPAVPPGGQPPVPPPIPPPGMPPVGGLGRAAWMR
T1 sequence (Q9NYV4 whole entry, species assumed): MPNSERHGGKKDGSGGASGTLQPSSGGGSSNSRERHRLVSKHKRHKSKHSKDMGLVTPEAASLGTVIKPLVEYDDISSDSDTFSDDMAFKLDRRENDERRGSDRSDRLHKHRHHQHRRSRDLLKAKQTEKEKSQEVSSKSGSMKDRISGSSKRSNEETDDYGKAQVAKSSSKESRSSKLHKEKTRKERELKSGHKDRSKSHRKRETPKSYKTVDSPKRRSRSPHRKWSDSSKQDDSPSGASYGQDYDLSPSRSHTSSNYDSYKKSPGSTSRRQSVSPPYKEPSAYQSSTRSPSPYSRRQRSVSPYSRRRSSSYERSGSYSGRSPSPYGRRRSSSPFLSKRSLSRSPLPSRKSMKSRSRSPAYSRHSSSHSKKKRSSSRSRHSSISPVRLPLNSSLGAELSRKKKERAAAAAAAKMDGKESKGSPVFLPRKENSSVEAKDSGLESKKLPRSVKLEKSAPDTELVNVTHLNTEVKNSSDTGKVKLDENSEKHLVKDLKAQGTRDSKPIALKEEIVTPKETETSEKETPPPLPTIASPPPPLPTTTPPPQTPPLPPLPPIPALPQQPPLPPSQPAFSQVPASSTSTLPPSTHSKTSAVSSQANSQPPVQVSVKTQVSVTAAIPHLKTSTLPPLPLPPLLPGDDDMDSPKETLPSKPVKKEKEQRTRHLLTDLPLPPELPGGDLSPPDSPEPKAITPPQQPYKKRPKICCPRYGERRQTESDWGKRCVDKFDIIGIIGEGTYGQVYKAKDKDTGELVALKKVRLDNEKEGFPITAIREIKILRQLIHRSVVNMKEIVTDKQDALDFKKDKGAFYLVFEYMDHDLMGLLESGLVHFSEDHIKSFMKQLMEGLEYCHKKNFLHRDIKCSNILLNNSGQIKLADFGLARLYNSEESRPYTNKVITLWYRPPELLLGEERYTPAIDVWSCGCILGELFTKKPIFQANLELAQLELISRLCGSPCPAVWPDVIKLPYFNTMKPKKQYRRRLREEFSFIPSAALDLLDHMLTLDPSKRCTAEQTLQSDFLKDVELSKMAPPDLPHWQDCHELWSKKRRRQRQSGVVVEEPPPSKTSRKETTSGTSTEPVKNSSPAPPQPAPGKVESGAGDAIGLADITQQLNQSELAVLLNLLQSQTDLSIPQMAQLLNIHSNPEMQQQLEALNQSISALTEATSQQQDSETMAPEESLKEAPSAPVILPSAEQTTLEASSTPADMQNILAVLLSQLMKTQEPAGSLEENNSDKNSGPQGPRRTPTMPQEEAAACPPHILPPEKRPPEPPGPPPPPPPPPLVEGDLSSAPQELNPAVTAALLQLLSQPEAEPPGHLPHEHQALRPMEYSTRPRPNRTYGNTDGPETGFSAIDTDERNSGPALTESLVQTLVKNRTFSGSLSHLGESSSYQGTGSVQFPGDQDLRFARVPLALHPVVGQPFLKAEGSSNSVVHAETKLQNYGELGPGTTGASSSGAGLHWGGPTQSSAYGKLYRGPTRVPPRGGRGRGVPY
T1 sequence (O75909 whole entry partner, species assumed): as the sequence (O75909 whole entry partner, species assumed) above
CDK1, sequence (P06493 whole entry, species assumed): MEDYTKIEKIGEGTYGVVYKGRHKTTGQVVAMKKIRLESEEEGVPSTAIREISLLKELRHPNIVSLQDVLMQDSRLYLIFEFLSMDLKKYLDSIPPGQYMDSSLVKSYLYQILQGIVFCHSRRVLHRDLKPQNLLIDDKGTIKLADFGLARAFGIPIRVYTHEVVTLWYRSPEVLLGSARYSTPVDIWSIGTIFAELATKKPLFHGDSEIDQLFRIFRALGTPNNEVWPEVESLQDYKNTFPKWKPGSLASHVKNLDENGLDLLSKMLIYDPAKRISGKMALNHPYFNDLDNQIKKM
CDK1, sequence (P14635 whole entry partner, species assumed): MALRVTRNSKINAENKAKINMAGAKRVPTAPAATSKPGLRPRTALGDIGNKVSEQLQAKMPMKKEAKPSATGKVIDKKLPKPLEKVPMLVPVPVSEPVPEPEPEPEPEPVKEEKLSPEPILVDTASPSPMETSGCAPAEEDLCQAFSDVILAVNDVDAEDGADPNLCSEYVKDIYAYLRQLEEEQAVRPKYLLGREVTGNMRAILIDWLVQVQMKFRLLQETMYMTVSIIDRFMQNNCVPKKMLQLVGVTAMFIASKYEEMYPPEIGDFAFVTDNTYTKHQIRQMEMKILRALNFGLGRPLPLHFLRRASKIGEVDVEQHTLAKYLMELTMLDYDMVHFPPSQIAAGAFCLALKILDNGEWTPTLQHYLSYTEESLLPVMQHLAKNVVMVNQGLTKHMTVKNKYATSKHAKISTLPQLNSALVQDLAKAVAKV

Fc1ccc2nc(CNc3cc(N4C5CCC4COC5)nn4c(C(F)(F)F)cnc34)[nH]c2c1F [Example 7, 6-(3-oxa-8-azabicyclo[3.2.1]octan-8-yl)-N-((6,7-difluoro-1H-benzo[d]imidazol-2-yl)methyl)-3-(trifluoromethyl)imidazo[1,2-b]pyridazin-8-amine]
IC50 (CDK12 [1]; [4]): 100 to 500 nM | IC50 (CDK13): < 100 nM | IC50 [2]: ≤ 50 nM | IC50 (CDK1): > 1000 nM | CDK1/CDK12 (CDK1): C (CDK1/CDK12 or CDK2/CDK12 ≤ 100-fold) | IC50 (CDK2): > 1000 nM | CDK2/CDK12 (CDK2): C (CDK1/CDK12 or CDK2/CDK12 ≤ 100-fold) | IC50 (CDK12 [3]): < 300 nM

Fc1ccc2nc(CNc3cc(N4C5CCC4CNC5)nn4c(C(F)(F)F)cnc34)[nH]c2c1F [Example 11, 6-(3,8-diazabicyclo[3.2.1]octan-8-yl)-N-((6,7-difluoro-1H-benzo[d]imidazol-2-yl)methyl)-3-(trifluoromethyl)imidazo[1,2-b]pyridazin-8-amine]
IC50 (CDK12 [1]; [4]): < 100 nM | IC50 (CDK13; [5]): < 100 nM | IC50 [2]: ≤ 50 nM | IC50 (CDK1): 100 to 1000 nM | CDK1/CDK12 (CDK1): B (100-fold < CDK1/CDK12 or CDK2/CDK12 ≤ 500-fold) | IC50 (CDK2): 100 to 1000 nM | CDK2/CDK12 (CDK2): B (100-fold < CDK1/CDK12 or CDK2/CDK12 ≤ 500-fold) | IC50 (CDK12 [3]): < 300 nM

CN1CC2CCC(C1)N2c1cc(NCc2nc3ccc(F)c(F)c3[nH]2)c2ncc(C(F)(F)F)n2n1 [Example 13]
IC50 (CDK12 [1]; [4]): < 100 nM | IC50 (CDK13; [5]): < 100 nM | IC50 [2]: ≤ 50 nM | IC50 (CDK1): > 1000 nM | CDK1/CDK12 (CDK1): A (CDK1/CDK12 or CDK2/CDK12 > 500-fold) | IC50 (CDK2): > 1000 nM | CDK2/CDK12 (CDK2): B (100-fold < CDK1/CDK12 or CDK2/CDK12 ≤ 500-fold) | IC50 (CDK12 [3]): < 300 nM

OC1CC2CCC(C1)N2c1cc(NCc2nc3ccc(F)c(F)c3[nH]2)c2ncc(C(F)(F)F)n2n1 (centres unmarked) [Example 14, 8-(8-(((6,7-difluoro-1H-benzo[d]imidazol-2-yl)methyl)amino)-3-(trifluoromethyl)imidazo[1,2-b]pyridazin-6-yl)-8-azabicyclo[3.2.1]octan-3-ol]
IC50 (CDK12 [1]; [4]): 100 to 500 nM | IC50 (CDK13; [5]): < 100 nM | IC50 [2]: ≤ 50 nM | IC50 (CDK1): > 1000 nM | CDK1/CDK12 (CDK1): C (CDK1/CDK12 or CDK2/CDK12 ≤ 100-fold) | IC50 (CDK2): 100 to 1000 nM | CDK2/CDK12 (CDK2): C (CDK1/CDK12 or CDK2/CDK12 ≤ 100-fold) | IC50 (CDK12 [3]): < 300 nM

OC1CN(c2cc(NCc3nc4ccc(F)c(F)c4[nH]3)c3ncc(C(F)(F)F)n3n2)C1 [Example 16, 1-(8-(((6,7-difluoro-1H-benzo[d]imidazol-2-yl)methyl)amino)-3-(trifluoromethyl)imidazo[1,2-b]pyridazin-6-yl)azetidin-3-ol]
IC50 (CDK12 [1]; [4]): < 100 nM | IC50 (CDK13; [5]): < 100 nM | IC50 [2]: ≤ 50 nM | IC50 (CDK1): > 1000 nM | CDK1/CDK12 (CDK1): B (100-fold < CDK1/CDK12 or CDK2/CDK12 ≤ 500-fold) | IC50 (CDK2): > 1000 nM | CDK2/CDK12 (CDK2): C (CDK1/CDK12 or CDK2/CDK12 ≤ 100-fold) | IC50 (CDK12 [3]): 300 to 3000 nM

Fc1ccc2nc(CNc3cc(N4CCNCC4)nn4c(C(F)(F)F)cnc34)[nH]c2c1F [Example 17]
IC50 (CDK12 [1]; [4]): < 100 nM | IC50 (CDK13; [5]): < 100 nM | IC50 [2]: ≤ 50 nM | IC50 (CDK1): > 1000 nM | CDK1/CDK12 (CDK1): A (CDK1/CDK12 or CDK2/CDK12 > 500-fold) | IC50 (CDK2): > 1000 nM | CDK2/CDK12 (CDK2): B (100-fold < CDK1/CDK12 or CDK2/CDK12 ≤ 500-fold) | IC50 (CDK12 [3]): < 300 nM

NC1CCN(c2cc(NCc3nc4ccc(F)c(F)c4[nH]3)c3ncc(C(F)(F)F)n3n2)CC1 [Example 18]
IC50 (CDK12 [1]; [4]): < 100 nM | IC50 (CDK13; [5]): < 100 nM | IC50 [2]: ≤ 50 nM | IC50 (CDK1): > 1000 nM | CDK1/CDK12 (CDK1): A (CDK1/CDK12 or CDK2/CDK12 > 500-fold) | IC50 (CDK2): > 1000 nM | CDK2/CDK12 (CDK2): A (CDK1/CDK12 or CDK2/CDK12 > 500-fold) | IC50 (CDK12 [3]): < 300 nM

OC1CCN(c2cc(NCc3nc4ccc(F)c(F)c4[nH]3)c3ncc(C(F)(F)F)n3n2)CC1 [Example 19, 1-(8-(((6,7-difluoro-1H-benzo[d]imidazol-2-yl)methyl)amino)-3-(trifluoromethyl)imidazo[1,2-b]pyridazin-6-yl)piperidin-4-ol]
IC50 (CDK12 [1]; [4]): < 100 nM | IC50 (CDK13): < 100 nM | IC50 [2]: ≤ 50 nM | IC50 (CDK1): > 1000 nM | CDK1/CDK12 (CDK1): A (CDK1/CDK12 or CDK2/CDK12 > 500-fold) | IC50 (CDK2): > 1000 nM | CDK2/CDK12 (CDK2): A (CDK1/CDK12 or CDK2/CDK12 > 500-fold) | IC50 (CDK12 [3]): 300 to 3000 nM

C#Cc1cnc2c(NCc3nc4ccc(F)c(F)c4[nH]3)cc(-c3cnc(N)nc3)nn12 [Example 22, 6-(2-aminopyrimidin-5-yl)-N-((6,7-difluoro-1H-benzo[d]imidazol-2-yl)methyl)-3-ethynylimidazo[1,2-b]pyridazin-8-amine]
IC50 (CDK12 [1]; [4]): < 100 nM | IC50 (CDK13): < 100 nM | IC50 [2]: 50 to 500 nM | IC50 (CDK1): > 1000 nM | CDK1/CDK12 (CDK1): A (CDK1/CDK12 or CDK2/CDK12 > 500-fold) | IC50 (CDK2): > 1000 nM | CDK2/CDK12 (CDK2): A (CDK1/CDK12 or CDK2/CDK12 > 500-fold) | IC50 (CDK12 [3]): < 300 nM

Fc1ccc2nc(CNc3cc(N4CCOCC4)nn4c(C5CC5)cnc34)[nH]c2c1F [Example 23, 3-cyclopropyl-N-((6,7-difluoro-lH-benzo[d]imidazol-2-yl)methyl)-6-morpholinoimidazo[1,2-b]pyridazin-8-amine]
IC50 (CDK12 [1]): 100 to 500 nM | IC50 (CDK13; [5]): < 100 nM | IC50 [2]: 50 to 500 nM | IC50 (CDK1): > 1000 nM | IC50 (CDK2): > 1000 nM | IC50 (CDK12 [3]): 300 to 3000 nM

Nc1ncc(-c2cc(NCc3nc4ccc(F)c(F)c4[nH]3)c3ncc(C(F)(F)F)n3n2)cn1 [Example 35]
IC50 (CDK12 [1]; [4]): < 100 nM | IC50 (CDK13; [5]): < 100 nM | IC50 [2]: ≤ 50 nM | IC50 (CDK1): > 1000 nM | CDK1/CDK12 (CDK1): A (CDK1/CDK12 or CDK2/CDK12 > 500-fold) | IC50 (CDK2): > 1000 nM | CDK2/CDK12 (CDK2): B (100-fold < CDK1/CDK12 or CDK2/CDK12 ≤ 500-fold) | IC50 (CDK12 [3]): < 300 nM

OC1CN(c2cc(NCc3nc4cc(Cl)c(Cl)cc4[nH]3)c3ncc(C(F)(F)F)n3n2)C1 [Example 41, 1-(8-(((5,6-dichloro-1H-benzo[d]imidazol-2-yl)methyl)amino)-3-(trifluoromethyl)imidazo[1,2-b]pyridazin-6-yl)azetidin-3-ol]
IC50 (CDK12 [1]; [4]): < 100 nM | IC50 (CDK13; [5]): < 100 nM | IC50 [2]: 50 to 500 nM | IC50 (CDK1): > 1000 nM | CDK1/CDK12 (CDK1): B (100-fold < CDK1/CDK12 or CDK2/CDK12 ≤ 500-fold) | IC50 (CDK2): > 1000 nM | CDK2/CDK12 (CDK2): B (100-fold < CDK1/CDK12 or CDK2/CDK12 ≤ 500-fold) | IC50 (CDK12 [3]): < 300 nM

FC(F)(F)c1cnc2c(NCc3nc4cc(Cl)c(Cl)cc4[nH]3)cc(N3CC4CCC(C3)O4)nn12 [Example 42]
IC50 (CDK12 [1]): 100 to 500 nM | IC50 (CDK13; [5]): < 100 nM | IC50 [2]: 50 to 500 nM | IC50 (CDK1): > 1000 nM | IC50 (CDK2): > 1000 nM | IC50 (CDK12 [3]): 300 to 3000 nM

O=C(CO)C1CCN(c2cc(NCc3nc4cc(Cl)c(Cl)cc4[nH]3)c3ncc(C(F)(F)F)n3n2)CC1 [Example 114, 1-(1-(8-(((5,6-dichloro-1H-benzo[d]imidazol-2-yl)methyl)amino)-3-(trifluoromethyl)imidazo[1,2-b]pyridazin-6-yl)piperidin-4-yl)-2-hydroxyethan-1-one]
IC50 (CDK12 [1]; [4]): < 100 nM | IC50 (CDK13): < 100 nM | IC50 [2]: ≤ 50 nM | IC50 (CDK12 [3]): < 300 nM
